The compounds below were run against human GOAT (Homo sapiens (Human), UniProt Q96T53) (assay: Determination of hGOAT Activity in HEK293 Cells after Incubation with Test Compound). Conditions: HEK293 cells stably transfected with preproghrelin and human GOAT; octanoate-BSA 100 μM; acyl-ghrelin in medium by ELISA after 5 hours.
Format: cell-based
Experimental: Determination of hGOAT Activity in HEK293 Cells after Incubation with Test Compound
HEK293 cells stably transfected with two expression vectors, one coding for preproghrelin cDNA and a second for the expression of human GOATcDNA are used as a cellular model. After feeding the cells with octanoic acid for 5 hours, acyl-ghrelin is measured in cell culture medium by an ELISA procedure.
Cellline: Hek293 hGOAT/PPGhrl Clone #1B8Sodium octanoate, Sigma, Cat.-No. C5038
BD Poly-D-Lysin 384-well Plates, black-clear polystyrene BD Bioscience Cat.-No. […] ELISA human acylated Ghrelin Kit purchased from Bertin Pharman (detailed composition of buffers e.g. wash-puffer, ELISA buffer not known)
Cells are plated with a density of 5000 cells/well in 384-well poly-D-lysin plates and incubated for 1 day at 37° C., 5% CO2 in DMEM medium, 10% FCS, 1×NEAA, Puromycin (0.5 μg/ml) and G418 (1 mg/ml). Then the medium is changed to a identical medium without FCS and containing Octanoate-BSA (final concentration 100 μM each) and compound in DMSO (final DMSO concentration 0.3%). After incubation for 5 hours acylghrelin in the medium is measured by ELISA
The medium sample is diluted 1:25 in Elisa buffer, A 25 ul aliquot is transferred to a 384-well ELISA plate previously washed 4 times with 100 μL wash buffer, and 25 μl tracer-solution is added. After incubation overnight (˜20 h) at 4° C. temperature the plate is washed 4 times with 100 μl wash-buffer per well. Finally 50 μl Ellman's reagent is added to each well and the plate is incubated in the dark for 20 minutes. The absorbance is measured at 405 nm in an Envision multilabel reader and the amount of acylated ghrelin is calculated according to a acylated ghrelin standard curve provided in the same plate.
The analysis of the data is performed by calculation of the percentage of acyl-ghrelin produced in the presence of test compound compared to the amount of acyl-ghrelin produced in the vehicle control samples. An inhibitor of the GOAT enzyme will give values between 100% CTL (no inhibition) and 0% CTL (complete inhibition). IC50 values are calculated with Assay Explorer or other suited software based on curve fitting of results of 8 different compound concentrations.

human GOAT, sequence (Q96T53 whole entry): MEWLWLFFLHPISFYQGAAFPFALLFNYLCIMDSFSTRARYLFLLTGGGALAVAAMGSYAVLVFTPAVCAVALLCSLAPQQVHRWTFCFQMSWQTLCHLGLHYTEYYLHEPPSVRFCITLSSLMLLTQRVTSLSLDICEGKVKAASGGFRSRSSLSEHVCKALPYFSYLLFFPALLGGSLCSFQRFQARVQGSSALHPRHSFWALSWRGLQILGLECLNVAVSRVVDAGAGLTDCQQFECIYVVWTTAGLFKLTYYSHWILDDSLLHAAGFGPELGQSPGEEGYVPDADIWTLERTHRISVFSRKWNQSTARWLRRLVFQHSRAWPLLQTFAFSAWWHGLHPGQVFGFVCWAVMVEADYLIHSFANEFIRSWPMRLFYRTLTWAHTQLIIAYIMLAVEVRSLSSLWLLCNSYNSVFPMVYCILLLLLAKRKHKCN

SMILES	IC50 [nM]
Cc1nc2nonc2c(N)c1Cc1ncc(C(F)(F)F)c(N)n1 [Example 46, 2-(7-amino-5-methyl-[1,2,5]oxadiazolo[3,4-b]pyridin-6-ylmethyl)-5-(trifluoromethyl)pyrimidin-4-amine]	0.22
Cc1nc2nonc2c(N)c1Cc1ccc(Cl)c(C#N)n1 [Example 47, 6-(7-amino-5-methyl-[1,2,5]oxadiazolo[3,4-b]pyridin-6-ylmethyl)-3-chloropyridine-2-carbonitrile]	2.4
Cc1nc2nonc2c(N)c1Cc1ccc(C(F)(F)F)c(C#N)n1 [Example 48, 6-(7-Amino-5-methyl-[1,2,5]oxadiazolo[3,4-b]pyridin-6-ylmethyl)-3-trifluoromethyl-pyridine-2-carbonitrile]	0.18
Cc1nc2nonc2c(N)c1Cc1ccc(C(F)(F)F)c(C(=O)C(C)C)n1 [Example 49, 1-[6-(7-Amino-5-methyl-[1,2,5]oxadiazolo[3,4-b]pyridin-6-ylmethyl)-3-trifluoromethyl-pyridin-2-yl]-2-methyl-propan-1-one]	0.15
Cc1nc2nonc2c(N)c1Cc1ncc(C(F)(F)F)c(Cl)n1 [Example 50, 6-[4-chloro-5-(trifluoromethyl)pyrimidin-2-yl]methyl-5-methyl-[1,2,5]oxadiazolo[3,4-b]pyridin-7-amine]	2.5
Cc1nc2nonc2c(N)c1Cc1nccc(C#N)n1 [Example 51, 2-(7-amino-5-methyl-[1,2,5]oxadiazolo[3,4-b]pyridin-6-ylmethyl)pyrimidine-4-carbonitrile]	20
Cc1nc2nonc2c(N)c1Cc1cccc(C(F)(F)F)n1 [Example 52, 5-Methyl-6-(6-trifluoromethyl-pyridin-2-ylmethyl)-[1,2,5]oxadiazolo[3,4-b]pyridin-7-ylamine]	0.48
Cc1cccc(Cc2c(C)nc3nonc3c2N)n1 [Example 53, 5-Methyl-6-(6-methyl-pyridin-2-ylmethyl)-[1,2,5]oxadiazolo[3,4-b]pyridin-7-ylamine]	2.6
CNC(=O)c1cccc(Cc2c(C)nc3nonc3c2N)n1 [Example 54, 6-(7-Amino-5-methyl-[1,2,5]oxadiazolo[3,4-b]pyridin-6-ylmethyl)-pyridine-2-carboxylic acid methylamide]	0.24
Cc1nc2nonc2c(N)c1Cc1cccc(C(=O)N(C)C)n1 [Example 55, 6-(7-Amino-5-methyl-[1,2,5]oxadiazolo[3,4-b]pyridin-6-ylmethyl)-pyridine-2-carboxylic Acid Dimethylamide]	3.9
Cc1nc2nonc2c(N)c1Cc1cccc(C(N)=O)n1 [Example 56, 6-(7-Amino-5-methyl-[1,2,5]oxadiazolo[3,4-b]pyridin-6-ylmethyl)-pyridine-2-carboxylic Acid Amide]	0.72
Cc1nc2nonc2c(N)c1Cc1cccc(-c2ccco2)n1 [Example 57, 6-(6-Furan-2-yl-pyridin-2-ylmethyl)-5-methyl-[1,2,5]oxadiazolo[3,4-b]pyridin-7-ylamine]	0.1
Cc1nc2nonc2c(N)c1Cc1ccccn1 [Example 58, 5-methyl-6-[(pyridin-2-yl)methyl]-[1,2,5]oxadiazolo[3,4-b]pyridin-7-amine]	2.8
Cc1nc2nonc2c(N)c1Cc1cccc(-c2cncn2C)n1 [Example 59, 5-Methyl-6-[6-(3-methyl-3H-imidazol-4-yl)-pyridin-2-ylmethyl]-[1,2,5]oxadiazolo[3,4-b]pyridin-7-ylamine]	0.34

Other lines, results leading:

IC50 [nM]	SMILES
0.48	Cc1nc2nonc2c(N)c1Cc1cccc(-c2c(C)noc2C)n1 [Example 60, 6-[6-(3,5-Dimethyl-isoxazol-4-yl)-pyridin-2-ylmethyl]-5-methyl-[1,2,5]oxadiazolo[3,4-b]pyridin-7-ylamine]
0.29	Cc1nc2nonc2c(N)c1Cc1cccc(-c2cn(C)nc2C(F)(F)F)n1 [Example 61, 5-Methyl-6-[6-(1-methyl-3-trifluoromethyl-1H-pyrazol-4-yl)-pyridin-2-ylmethyl]-[1,2,5]oxadiazolo[3,4-b]pyridin-7-ylamine]
0.21	Cc1nc2nonc2c(N)c1Cc1cccc(-c2c[nH]nc2C(F)(F)F)n1 [Example 62, 5-Methyl-6-[6-(3-trifluoromethyl-1H-pyrazol-4-yl)-pyridin-2-ylmethyl]-[1,2,5]oxadiazolo[3,4-b]pyridin-7-ylamine]
0.48	Cc1nc2nonc2c(N)c1Cc1cccc(C(C)(C)C#N)n1 [Example 63, 2-[6-(7-Amino-5-methyl-[1,2,5]oxadiazolo[3,4-b]pyridin-6-ylmethyl)-pyridin-2-yl]-2-methyl-propionitrile]
0.1	Cc1nc2nonc2c(N)c1Cc1cccc(C2(C#N)CCCC2)n1 [Example 64, 1-[6-(7-Amino-5-methyl-[1,2,5]oxadiazolo[3,4-b]pyridin-6-ylmethyl)-pyridin-2-yl]-cyclopentanecarbonitrile]
0.29	Cc1nc2nonc2c(N)c1Cc1ccc(-c2cnn3c2CCC3)c(N)n1 [Example 65, 6-[6-Amino-5-(5,6-dihydro-4H-pyrrolo[1,2-b]pyrazol-3-yl)-pyridin-2-ylmethyl]-5-methyl-[1,2,5]oxadiazolo[3,4-b]pyridin-7-ylamine]
0.14	Cc1nc2nonc2c(N)c1Cc1ccc(-c2c(C)noc2C)c(N)n1 [Example 66, 6-[6-Amino-5-(3,5-dimethyl-isoxazol-4-yl)-pyridin-2-ylmethyl]-5-methyl-[1,2,5]oxadiazolo[3,4-b]pyridin-7-ylamine]
0.05	Cc1nc2nonc2c(N)c1Cc1ccc(-c2cncs2)c(N)n1 [Example 67, 6-(6-Amino-5-thiazol-5-yl-pyridin-2-ylmethyl)-5-methyl-[1,2,5]oxadiazolo[3,4-b]pyridin-7-ylamine]
0.11	Cc1cnn(C)c1-c1ccc(Cc2c(C)nc3nonc3c2N)nc1N [Example 68, 6-[6-Amino-5-(2,4-dimethyl-2H-pyrazol-3-yl)-pyridin-2-ylmethyl]-5-methyl-[1,2,5]oxadiazolo[3,4-b]pyridin-7-ylamine]
0.58	Cc1nc2nonc2c(N)c1Cc1ccc(-c2cnccn2)c(N)n1 [Example 69, 6-(6-Amino-5-pyrazin-2-yl-pyridin-2-ylmethyl)-5-methyl-[1,2,5]oxadiazolo[3,4-b]pyridin-7-ylamine]
0.082	Cc1nc2nonc2c(N)c1Cc1ccc(OC(F)F)c(C#N)n1 [Example 70, 6-(7-Amino-5-methyl-[1,2,5]oxadiazolo[3,4-b]pyridin-6-ylmethyl)-3-difluoromethoxy-pyridine-2-carbonitrile]
0.22	Cc1nc2nonc2c(N)c1Cc1ccc(Br)c(C#N)n1 [Example 71, 6-(7-Amino-5-methyl-[1,2,5]oxadiazolo[3,4-b]pyridin-6-ylmethyl)-3-bromopyridine-2-carbonitrile]
1.1	Cc1nc2nonc2c(N)c1Cc1ccc(C#N)c(F)n1 [Example 72, 6-(7-Amino-5-methyl-[1,2,5]oxadiazolo[3,4-b]pyridin-6-ylmethyl)-2-fluoro-nicotinonitrile]
0.33	Cc1nc2nonc2c(N)c1Cc1ccc(C#N)c(OC(F)F)n1 [Example 73, 6-(7-Amino-5-methyl-[1,2,5]oxadiazolo[3,4-b]pyridin-6-ylmethyl)-2-difluoromethoxy-nicotinonitrile]
2	Cc1nc2nonc2c(N)c1Cc1cc(C(F)(F)F)c(C#N)cn1 [Example 74, 6-(7-Amino-5-methyl-[1,2,5]oxadiazolo[3,4-b]pyridin-6-ylmethyl)-4-trifluoromethyl-nicotinonitrile]
2.7	Cc1nc2nonc2c(N)c1Cc1ncc(C(F)(F)F)c(C#N)n1 [Example 75, 2-(7-amino-5-methyl-[1,2,5]oxadiazolo[3,4-b]pyridin-6-ylmethyl)-5-(trifluoromethyl)pyrimidine-4-carbonitrile]
14	Cc1nc2nonc2c(N)c1Cc1cc(C#N)c(C#N)cn1 [Example 76, 6-(7-amino-5-methyl-[1,2,5]oxadiazolo[3,4-b]pyridin-6-ylmethyl)pyridine-3,4-dicarbonitrile]
3.8	Cc1nc2nonc2c(N)c1Cc1ncc(C#N)cn1 [Example 77, 2-(7-amino-5-methyl-[1,2,5]oxadiazolo[3,4-b]pyridin-6-ylmethyl)pyrimidine-5-carbonitrile]
0.36	Cc1nc2nonc2c(N)c1Cc1ncc(C#N)c(C(F)(F)F)n1 [Example 78, 2-(7-amino-5-methyl-[1,2,5]oxadiazolo[3,4-b]pyridin-6-ylmethyl)-4-(trifluoromethyl)pyrimidine-5-carbonitril]
0.59	Cc1nc2nonc2c(N)c1Cc1ncc(C#N)c(C(F)F)n1 [Example 79, 2-(7-amino-5-methyl-[1,2,5]oxadiazolo[3,4-b]pyridin-6-ylmethyl)-4-(difluoromethyl)pyrimidine-5-carbonitrile]
